How the values were obtained:
NASH patients = experiment: Exposure-response: probability of NASH resolution or fibrosis response by Cave,ss; format: in vivo, human
Experimental: Various body weight cutoffs for dosing were evaluated.
Study median body weight was 100 kg. […] Study median BMI was 35 kg/m^2.

[1] = system: adults with biopsy-confirmed NASH and fibrosis stage F1B, F2, or F3; experiment: MAESTRO-NASH: sensitivity analyses of primary endpoints (consensus, multiple imputation, GEE, tipping point, paired biopsies); format: in vivo, human; details: for Fibrosis improvement at Week 52, % / Fibrosis improvement at Week 52, no. / NASH resolution at Week 52, % / NASH resolution at Week 52, no.: GEE analysis; for Difference in percentage of responders, CMH, resmetirom group - placebo, NASH resolution / Difference in percentage of responders, CMH, resmetirom group - placebo, fibrosis improvement / OR of resmetirom group to placebo, NASH resolution / OR of resmetirom group to placebo, fibrosis improvement: GEE model
Experimental: Consensus reads of digitized images of glass slides by the two central pathologists were conducted in cases where the two pathologists scores disagreed as to whether there was a response for either NASH resolution (ballooning 0,1; 2-point NAS reduction and no worsening of fibrosis) OR ≥1 stage fibrosis reduction with no worsening of NAS (primary endpoints) OR a 2-stage reduction in fibrosis with no worsening of NAS. The study pathologists remained blinded to all clinical data, patient ID, and slide/image identity or time of biopsy. Study personnel remain blinded to patient level data and detailed group analyses. In total 387 total assessments took place requiring four Zoom meetings between the pathologists.
Tipping Point Analyses: This analysis imputed missing placebo responses for NASH resolution (in increments from 0% to 100% placebo imputation) and fibrosis response (in increments from 0% up to 35% placebo imputation) at Week 52 as successful responses in order to determine how many missing responses (which were counted in the primary analysis labels as non-responders) could be imputed before losing statistical significance.
Multiple Imputation Analysis: Multiple imputation analyses were conducted where data for patients with missing response at Week 52 were imputed under the missing at random assumption. Data for patients with missing response data at Week 52 were imputed under the missing at random assumption by running a simulation (100 times) which produces a correlated pair of binary 0/1 data for each patient that represents the patient's response status for each pathologist. The statistics were then calculated for each imputation using the same approach as for the primary endpoint. The normalized results from each dataset were combined using Rubin's rule. (Table 17).
General Estimating Equation (GEE) Model Analysis: A generalized estimation equation (GEE) analysis was performed as a sensitivity analysis. This approach treated the biopsy scores from the two pathologists as repeated measures (i.e. correlated binary outcomes) within a patient. Baseline diabetes status, fibrosis stage and interaction term between pathologist and treatment were also included in the model.
Summary of Observed Cases Using In-window Week 52 Paired Liver Biopsies: Supportive analyses were performed on patients with in-window paired Week 52 biopsies. Missing Week 52 biopsies were not imputed.

[2] = 80 mg (N = 258), in window including a baseline and Week 52 biopsy
[3] = 80 mg (n = 316), (1, 1) = responder per pathologist A and B
[4] = 80 mg (n = 316), Week 52, tipping point analysis, active patients with missing response = non-responders
[5] = 80 mg, (0, 0) = non-responder per both pathologists
[6] = 80 mg, (0, 1) = responder per pathologist B only
[7] = 80 mg, (1, 0) = responder per pathologist A only
[8] = 100 mg (N = 248), in window including a baseline and Week 52 biopsy
[9] = 100 mg (n = 321), (1, 1) = responder per pathologist A and B
[10] = 100 mg (n = 321), Week 52, tipping point analysis, active patients with missing response = non-responders
[11] = 100 mg, (0, 0) = non-responder per both pathologists
[12] = 100 mg, (0, 1) = responder per pathologist B only
[13] = 100 mg, (1, 0) = responder per pathologist A only
[14] = in window including a baseline and Week 52 biopsy
[15] = in-window including a baseline and Week 52 biopsy
[16] = tipping point, Placebo-0% imputed responders (Primary Analysis)
[17] = tipping point, Placebo-10% imputed responders
[18] = tipping point, Placebo-20% imputed responders
[19] = tipping point, Placebo-25% imputed responders
[20] = tipping point, Placebo-30% imputed responders
[21] = tipping point, Placebo-35% imputed responders
[22] = tipping point, Placebo-60% imputed responders
[23] = tipping point, Placebo-67% imputed responders
[24] = tipping point, Placebo-90% imputed responders
[25] = tipping point, Placebo-100% imputed responders

## CC(C)c1cc(Oc2c(Cl)cc(-n3nc(C#N)c(=O)[nH]c3=O)cc2Cl)n[nH]c1=O [Resmetirom, 2-(3,5-dichloro-4-((5-isopropyl-6-oxo-1,6-dihydropyridazin-3-yl)oxy)phenyl)-3,5-dioxo-2,3,4,5-tetrahydro-1,2,4-triazine-6-carbonitrile]
NASH patients; Cave,ss Q1: [20-155)
  Estimated Probability of response (NASH resolution or fibrosis response): 33.6%
  Observed Probability of response (NASH resolution or fibrosis response): 45.5%
NASH patients; Cave,ss Q2: [155-219)
  Estimated Probability of response (NASH resolution or fibrosis response): 37.3%
  Observed Probability of response (NASH resolution or fibrosis response): 44.0%
NASH patients; Cave,ss Q3: [219-321)
  Estimated Probability of response (NASH resolution or fibrosis response): 41.9%
  Observed Probability of response (NASH resolution or fibrosis response): 41.8%
NASH patients; Cave,ss Q4: [321-1326]
  Estimated Probability of response (NASH resolution or fibrosis response): 56.2%
  Observed Probability of response (NASH resolution or fibrosis response): 55.0%
NASH patients; Q1: [20-155)
  Mean Cave,ss: 120 ng/mL
NASH patients; Q2: [155-219)
  Mean Cave,ss: 186 ng/mL
NASH patients; Q3: [219-321)
  Mean Cave,ss: 263 ng/mL
NASH patients; Q4: [321-1326]
  Mean Cave,ss: 495 ng/mL
[1]; [2]
  % Response, Fibrosis improvement: 29.7%
  % Response, NASH resolution: 31.8%
[1]; 80 mg (N = 258), in-window including a baseline and Week 52 biopsy
  % Response, NASH resolution OR fibrosis improvement: 42.2%
[1]; [3]
  Fibrosis improvement at Week 52, %: (16.5) %
  Fibrosis improvement at Week 52, no.: 52
  NASH resolution at Week 52, %: (19.6) %
  NASH resolution at Week 52, no.: 62
[1]; [4]
  % Response, Fibrosis improvement: 24.2%
  % Response, NASH resolution: 25.9%
[1]; 80 mg, Week 52
  Fibrosis improvement, Consensus (sensitivity), % Difference from PBO: 12.2%
  Fibrosis improvement, Consensus (sensitivity), % Response: 24.4%
  Fibrosis improvement, Multiple imputation (sensitivity), % Difference from PBO: 11.4%
  Fibrosis improvement, Multiple imputation (sensitivity), % Response: 29.2%
  NASH resolution, Consensus (sensitivity), % Difference from PBO: 16.8%
  NASH resolution, Consensus (sensitivity), % Response: 24.4%
  NASH resolution, Multiple imputation (sensitivity), % Difference from PBO: 17.7%
  NASH resolution, Multiple imputation (sensitivity), % Response: 31.0%
  Difference in percentage of responders, CMH, resmetirom group - placebo, NASH resolution: 17.5
  Difference in percentage of responders, CMH, resmetirom group - placebo, fibrosis improvement: 9.7
  OR of resmetirom group to placebo, NASH resolution: 3.5
  OR of resmetirom group to placebo, fibrosis improvement: 2.0
[1]; [5]
  Fibrosis improvement at Week 52, %: (68.0) %
  Fibrosis improvement at Week 52, no.: 215
  NASH resolution at Week 52, %: (67.7) %
  NASH resolution at Week 52, no.: 214
[1]; [6]
  Fibrosis improvement at Week 52, %: (8.9) %
  Fibrosis improvement at Week 52, no.: 28
  NASH resolution at Week 52, %: (5.1) %
  NASH resolution at Week 52, no.: 16
[1]; [7]
  Fibrosis improvement at Week 52, %: (6.6) %
  Fibrosis improvement at Week 52, no.: 21
  NASH resolution at Week 52, %: (7.6) %
  NASH resolution at Week 52, no.: 24
[1]; [8]
  % Response, Fibrosis improvement: 33.5%
  % Response, NASH resolution: 38.7%
[1]; 100 mg (N = 248), in-window including a baseline and Week 52 biopsy
  % Response, NASH resolution OR fibrosis improvement: 50.4%
[1]; [9]
  Fibrosis improvement at Week 52, %: (15.9) %
  Fibrosis improvement at Week 52, no.: 51
  NASH resolution at Week 52, %: (19.3) %
  NASH resolution at Week 52, no.: 62
[1]; [10]
  % Response, Fibrosis improvement: 25.9%
  % Response, NASH resolution: 29.9%
[1]; 100 mg, Week 52
  Fibrosis improvement, Consensus (sensitivity), % Difference from PBO: 13.4%
  Fibrosis improvement, Consensus (sensitivity), % Response: 25.5%
  Fibrosis improvement, Multiple imputation (sensitivity), % Difference from PBO: 14.1%
  Fibrosis improvement, Multiple imputation (sensitivity), % Response: 31.9%
  NASH resolution, Consensus (sensitivity), % Difference from PBO: 20.7%
  NASH resolution, Consensus (sensitivity), % Response: 27.7%
  NASH resolution, Multiple imputation (sensitivity), % Difference from PBO: 23.2%
  NASH resolution, Multiple imputation (sensitivity), % Response: 36.0%
  Difference in percentage of responders, CMH, resmetirom group - placebo, NASH resolution: 21.3
  Difference in percentage of responders, CMH, resmetirom group - placebo, fibrosis improvement: 11.0
  OR of resmetirom group to placebo, NASH resolution: 4.2
  OR of resmetirom group to placebo, fibrosis improvement: 2.1
[1]; [11]
  Fibrosis improvement at Week 52, %: (64.2) %
  Fibrosis improvement at Week 52, no.: 206
  NASH resolution at Week 52, %: (59.5) %
  NASH resolution at Week 52, no.: 191
[1]; [12]
  Fibrosis improvement at Week 52, %: (9.3) %
  Fibrosis improvement at Week 52, no.: 30
  NASH resolution at Week 52, %: (4.0) %
  NASH resolution at Week 52, no.: 13
[1]; [13]
  Fibrosis improvement at Week 52, %: (10.6) %
  Fibrosis improvement at Week 52, no.: 34
  NASH resolution at Week 52, %: (17.1) %
  NASH resolution at Week 52, no.: 55
[1]; [14]
  % Difference Resmetirom 80 mg from PBO, Fibrosis improvement: 13.6%
  % Difference Resmetirom 80 mg from PBO, NASH resolution: 20.9%
  % Difference Resmetirom 100 mg from PBO, Fibrosis improvement: 17.2%
  % Difference Resmetirom 100 mg from PBO, NASH resolution: 28.6%
[1]; [15]
  % Difference Resmetirom 80 mg from PBO, NASH resolution OR fibrosis improvement: 23.1%
  % Difference Resmetirom 100 mg from PBO, NASH resolution OR fibrosis improvement: 31.2%
[1]; [16]
  % Difference Resmetirom 80 mg from PBO, Fibrosis improvement: 10.2%
  % Difference Resmetirom 80 mg from PBO, NASH resolution: 16.4%
  % Difference Resmetirom 100 mg from PBO, Fibrosis improvement: 11.8%
  % Difference Resmetirom 100 mg from PBO, NASH resolution: 20.7%
[1]; [17]
  % Difference Resmetirom 80 mg from PBO, Fibrosis improvement: 8.8%
  % Difference Resmetirom 100 mg from PBO, Fibrosis improvement: 10.4%
[1]; [18]
  % Difference Resmetirom 80 mg from PBO, Fibrosis improvement: 7.5%
  % Difference Resmetirom 100 mg from PBO, Fibrosis improvement: 9.1%
[1]; [19]
  % Difference Resmetirom 80 mg from PBO, Fibrosis improvement: 6.9%
  % Difference Resmetirom 100 mg from PBO, Fibrosis improvement: 8.5%
[1]; [20]
  % Difference Resmetirom 80 mg from PBO, Fibrosis improvement: 6.2%
  % Difference Resmetirom 80 mg from PBO, NASH resolution: 12.4%
  % Difference Resmetirom 100 mg from PBO, Fibrosis improvement: 7.8%
  % Difference Resmetirom 100 mg from PBO, NASH resolution: 16.7%
[1]; [21]
  % Difference Resmetirom 80 mg from PBO, Fibrosis improvement: 5.5%
  % Difference Resmetirom 100 mg from PBO, Fibrosis improvement: 7.1%
[1]; [22]
  % Difference Resmetirom 80 mg from PBO, NASH resolution: 8.3%
  % Difference Resmetirom 100 mg from PBO, NASH resolution: 12.7%
[1]; [23]
  % Difference Resmetirom 80 mg from PBO, NASH resolution: 7.4%
  % Difference Resmetirom 100 mg from PBO, NASH resolution: 11.7%
[1]; [24]
  % Difference Resmetirom 80 mg from PBO, NASH resolution: 4.2%
  % Difference Resmetirom 100 mg from PBO, NASH resolution: 18.6%
[1]; [25]
  % Difference Resmetirom 80 mg from PBO, NASH resolution: 2.6%
  % Difference Resmetirom 100 mg from PBO, NASH resolution: 7.0%
